Results on 16 molecules are retold here after article PMC3196794 (Chemical research in toxicology, 2011).

Like-named read-outs stand apart in the source and are kept apart here.

Series [1] has as its target T1, hSULT2A1 (Homo sapiens, UniProt Q06520).
T1 sequence (Q06520 1-285): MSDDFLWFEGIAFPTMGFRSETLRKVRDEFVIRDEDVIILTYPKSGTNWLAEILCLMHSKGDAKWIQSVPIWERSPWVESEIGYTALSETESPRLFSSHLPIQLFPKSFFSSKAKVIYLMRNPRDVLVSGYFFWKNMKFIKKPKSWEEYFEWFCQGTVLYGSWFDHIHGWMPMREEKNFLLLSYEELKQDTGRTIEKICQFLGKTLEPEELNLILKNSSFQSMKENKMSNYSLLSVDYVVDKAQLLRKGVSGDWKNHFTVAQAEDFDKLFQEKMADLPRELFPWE
Description: Inhibition of the sulfation of DHEA catalyzed by hSULT2A1. The format is biochemical.

Series [2] addresses T1, hSULT2A1. In words: CoMFA 3D-QSAR model for inhibition of hSULT2A1 by OHPCBs. Conditions: for Difference between the experimental and the predicted values for pIC50: CoMFA Model 1.
The target of series [3] is T1, hSULT2A1. In words: OHPCBs as substrates for hSULT2A1. The format is biochemical. Conditions: 200 μM PAPS; fit to substrate inhibition equation.
For series [4] the following is noted: pH 7.
Series [5] addresses T1, hSULT2A1. Conditions: 200 μM PAPS; cited from earlier work.
Where [6] appears, read: Actual pIC50, -log IC50 (M), Table 3.
Where [7] appears, read: IC50 (inhibition of the sulfation of DHEA catalyzed by hSULT2A1), 1 μM [3H]DHEA, 200 μM PAPS, pH 7.0, 37°C, 10 min, mean ± standard error of the fit.

The term IC50 denotes the concentration needed to halve the response being measured. Take `Oc1ccc(-c2cc(Cl)ccc2Cl)cc1` [4′-OHPCB 9, 4′-hydroxy-2,5-dichlorobiphenyl]: the IC50 in series [1] (setting [6]) was 7.5e-06 M; in series [1] (setting [7]) it was 7.5e-06 ± 1.1e-06 M. The “Difference between the experimental and the predicted values for pIC50” value in series [2] was 0.011.
Consider `Oc1ccc(-c2ccc(Cl)c(Cl)c2)c(Cl)c1` [4′-OHPCB 33, 4′-hydroxy-2′, 3,4-trichlorobiphenyl], for which the “Kis (substrate inhibition constant)” value in series [3] was found to be 217 ± 189 µM. Also, the results for the IC50 in series [1] (setting [6]) and in series [1] (setting [7]) were 2.5e-06 M and 2.5e-06 ± 1.1e-06 M, respectively. The “Difference between the experimental and the predicted values for pIC50” value in series [2] is recorded as 0.099.
With `Oc1ccc(-c2ccc(Cl)cc2Cl)cc1Cl` [4′-OHPCB 25, 4′-hydroxy-2, 3′, 4-trichlorobiphenyl], the solubility result in series [4] is listed as “low solubility”. Further, the IC50 was 4.4e-06 M in series [1] (Actual IC50, Table 4); 4.4e-06 M in series [1] (setting [6]); 4.4e-06 ± 1.3e-06 M in series [1] (setting [7]). The “Difference between the experimental and the predicted values for pIC50” value in series [2] is 0.084.
As for `Oc1c(Cl)cc(-c2ccccc2)cc1Cl` [4-OHPCB 14, 4-hydroxy-3,5-dichlorobiphenyl], in series [3], the “Kis (substrate inhibition constant)” value stood at 220 ± 56 µM. Besides, the IC50 in series [1] (Actual IC50, Table 4) is 1.3e-05 M; in series [1] (setting [6]) it was 1.3e-05 M; in series [1] (setting [7]) it was 1.3e-05 ± 1.1e-06 M. The “Difference between the experimental and the predicted values for pIC50” value in series [2] is 0.196. In series [2] (CoMFA Model 2), the “fold difference between the predicted and the actual IC50 values” is listed as 3.8 fold.
As for `Oc1c(Cl)cc(-c2cccc(Cl)c2)cc1Cl` [4-OHPCB 36, 4-hydroxy-3, 3′, 5-trichlorobiphenyl], the “Kis (substrate inhibition constant)” value in series [3] is 39.4 ± 23.1 µM. The IC50 in series [1] (setting [6]) is 4.4e-06 M; in series [1] (setting [7]), 4.4e-06 ± 1.2e-06 M. Also, in series [2], the “Difference between the experimental and the predicted values for pIC50” value is on record as 0.088.
The matching figures for `Oc1ccc(-c2cccc(Cl)c2)cc1Cl` [4-OHPCB 11, 4-hydroxy-3, 3′-dichlorobiphenyl]: 51.9 ± 65.7 µM, 1.4e-05 M, 1.4e-05 ± 1.2e-06 M and 0.011.
With `Oc1ccc(-c2ccc(Cl)cc2)cc1O` [3′,4′-diOHPCB 3, 3′, 4′-dihydroxy-4-monochlorobiphenyl], the IC50 stood at 9.57e-05 M in series [1] (IC50 (experimental, Table 3), experimental values used for CoMFA Model 1) and 9.6e-05 ± 1.2e-06 M in series [1] (setting [7]). The “Difference between the experimental and the predicted values for pIC50” value in series [2] is 0.072.
On to `Oc1ccc(-c2ccc(Cl)cc2)c(Cl)c1` [4-OHPCB 8, 4-hydroxy-2, 4′-dichlorobiphenyl], for which the “Kis (substrate inhibition constant)” value in series [3] was determined as 65.4 ± 73.8 µM. Besides, the IC50 was 1e-05 M in series [1] (setting [6]) and 1e-05 ± 1.2e-06 M in series [1] (setting [7]). The “Difference between the experimental and the predicted values for pIC50” value in series [2] is 0.303.
`Oc1ccc(-c2cccc(Cl)c2Cl)cc1O` [3′,4′-diOHPCB 5, 3′, 4′-dihydroxy-2,3-dichlorobiphenyl]: the IC50 in series [1] (setting [6]) was 1.59e-05 M; in series [1] (setting [7]), 1.6e-05 ± 1.1e-06 M. Besides, the “Difference between the experimental and the predicted values for pIC50” value in series [2] is given as 0.054.
Molecule `Oc1c(Cl)cc(-c2ccc(Cl)cc2Cl)cc1Cl` [4′-OHPCB 68, 4′-hydroxy-2, 3′, 4, 5′-tetrachlorobiphenyl] showed an IC50 in series [1] (setting [6]) of 8e-07 M. Moreover, in series [2], the “Difference between the experimental and the predicted values for pIC50” value is reported as 0.056.
Turning to `Oc1ccc(-c2ccc(Cl)cc2)cc1` [4′-OHPCB 3, 4′-hydroxy-4-monochlorobiphenyl], the IC50 in series [1] (setting [6]) was 2.81e-05 M; in series [1] (setting [7]), 2.8e-05 ± 1.1e-06 M. Besides, in series [2], the “Difference between the experimental and the predicted values for pIC50” value was 0.026.
In the case of `Oc1c(Cl)cc(-c2ccccc2Cl)cc1Cl` [4-OHPCB 34, 4-hydroxy-2′, 3,5-trichlorobiphenyl], the “Kis (substrate inhibition constant)” value in series [3] worked out at 47.4 ± 16.2 µM. The molecule further had an IC50 in series [1] (setting [6]) of 6e-07 M. Besides, the “fold decrease in IC50 compared with 4-OHPCB 36” value in series [1] (chlorine in the non-phenolic ring changed from meta to ortho) was “approximately 7 fold”. For the same molecule, the “Difference between the experimental and the predicted values for pIC50” value in series [2] is 0.199.
Consider `Oc1ccc(-c2ccccc2Cl)cc1Cl` [4′-OHPCB 6, 4′-hydroxy-2, 3′-dichlorobiphenyl], for which the IC50 is 9.79e-06 M in series [1] (setting [6]) and 9.8e-06 ± 1.1e-06 M in series [1] (setting [7]). In series [2], the “Difference between the experimental and the predicted values for pIC50” value was 0.108.
As for `Oc1ccc(-c2ccc(Cl)c(Cl)c2)cc1` [4′-OHPCB 12, 4′-hydroxy-3,4-dichlorobiphenyl], the IC50 is 1.58e-05 M in series [1] (Actual IC50, Table 4); 1.58e-05 M in series [1] (setting [6]); 1.6e-05 ± 1.1e-06 M in series [1] (setting [7]). Besides, the “Difference between the experimental and the predicted values for pIC50” value in series [2] is reported as 0.039.
With `C[C@]12CC[C@H](O)CC1=CC[C@@H]1[C@@H]2CC[C@]2(C)C(=O)CC[C@@H]12` [DHEA, dehydroepiandrosterone], in series [5], the “Kis with DHEA as substrate” value was 8 ± 3 µM and the “Vmax with DHEA as substrate” value was 245 ± 40 nmol/min/mg.
With `Oc1ccc(Cl)cc1-c1ccc(Cl)c(Cl)c1` [6′-OHPCB 35, 6′-hydroxy-3, 3′-4 trichlorobiphenyl], the “Actual pIC50” value in series [1] (-log IC50 (M), Table 3) is 4.810. Besides, in series [1] (read-out: IC50 (inhibition of the sulfation of DHEA catalyzed by hSULT2A1), 1 μM [3H]DHEA, 200 μM PAPS, pH 7.0, 37°C, 10 min, mean ± standard error of the fit), the IC50 was 1.6e-05 ± 1.1e-06 M. Moreover, the “Difference between the experimental and the predicted values for pIC50” value in series [2] is given as 0.088.
